Cytotoxicity data for 71 compounds are collected here from ChEMBL document CHEMBL3507680, “University of Dundee, Gates Library screen for HepG2 cell viability”.

SMILES strings stand for the structures.

A short description of this data set: Human HepG2 cell viability assay in 384 well format. It is filed as toxicity, cell-based. Particulars: HepG2 cells, read-out: Inhibition. The arrangement: dose 125 nL, time 70.5 hour; cytotoxicity at 70.5 h: concentration not given beside the values.
For `C[C@H]1CN(c2ccccn2)C[C@@]12CCN(Cc1cccnc1)C2=O`, the cytotoxicity at 70.5 h was -0.624%.
Then `COc1ccc2nnc(CCCC(=O)NCCc3ccccn3)n2n1`, with -3.59%; and `CCN(CC1COc2ccccc2O1)C(=O)C1=NN(C)C(=O)CC1` (stereo unspecified), with -2.86%; and `CCn1nc(C)c2ncnc(NCC(=O)N3CCOCC3)c21`, with -11.2%.
Next, `Cn1ncc2c(=O)[nH]c(CN3CCc4ccccc4C3)nc21`: -15.9%; `O=C(N[C@@H]1CC[C@@H](N2CCOCC2)[C@@H]1O)c1cnn2cccnc12`: 21.8%; `CC(C)c1noc(CNc2cccc(-c3nnnn3C)c2)n1`: -8.75%.
Next, `CCc1nnc(SCc2cc(=O)n3c4c(sc3n2)CCCC4)[nH]1`: -1.82%; `CN(C)C(=O)c1cc2ncc(C(=O)NC3CCCC3)cc2n1C`: -0.145%; `Cn1ccnc1COc1ccc(CO)cc1`: -6.37%.
In the case of `COc1cc(N(C)Cc2noc(CC(C)C)n2)ncn1`, the cytotoxicity at 70.5 h came to 20.1%.
Regarding `CC(Cn1cccn1)NC(=O)CCc1ccc(S(N)(=O)=O)cc1` (stereo unspecified), the cytotoxicity at 70.5 h is -15.1%.
Next, `Cc1nc(CCC(=O)N2Cc3cnc(-c4ccccc4)nc3C2)n[nH]1`: -14.8%; `CCCn1nc2c(cc1=O)CN(c1ncnc3sccc13)CC2`: -10.8%; `Cn1nc2c(c1NC(=O)c1cccs1)CCC2`: -12.2%.
Then `CCC(O)CN1CCN(C(=O)c2csc(COC)n2)CC1` (stereo unspecified), with -3.48%; and `Cc1cnn(CC2CCCN2C(=O)CCc2ccsc2)c1` (stereo unspecified), with -5.3%; and `Cc1ncnc2c1CCN(C(=O)c1ccnnc1)CC2`, with -2.5%.
As for `CCCNC(=O)CSCc1ccc(S(=O)(=O)N(C)C)o1`, the cytotoxicity at 70.5 h was -6.98%.
With `CSCCCn1ccnc1-c1cccc(C#N)c1`, the cytotoxicity at 70.5 h is 8.22%.
As for `Cc1ccc(N(C)C2CCCN(C(=O)Nc3ccc(F)cc3F)C2)cc1` (stereo unspecified), the cytotoxicity at 70.5 h was -2.7%.
Then `Cn1cc2c(n1)C(CNCC1CCOCC1)OCC2` (stereo unspecified), with 4.92%; and `COCC1c2c(cnn2CC2CC2)CCN1Cc1ccc(OC)cc1` (stereo unspecified), with 49.3%; and `COCCN1C(=O)[C@H]2CC[C@@H]1CN(Cc1nnc(-c3ccccc3)o1)C2`, with -4.89%.
Next, `O=C1CCCN1Cc1nnc2n1CCCN(C(=O)c1ccco1)C2`: 22.7%; `CC(=O)NCCCC(=O)N1CCC(Sc2cccc(C)c2)CC1`: -12.1%.
Next, `Cc1cc(NC(=O)NCCc2ccccc2)n(C)n1`: -7.09%; `CC(C)NC(=O)[C@@H]1C[C@@H]2CCN(Cc3ccoc3)C[C@H]2O1`: 0.151%.
Consider `Cc1nc(CNC(=O)NC2CCCN(c3ncccn3)C2)cs1` (stereo unspecified), for which the cytotoxicity at 70.5 h is -14.1%.
Then `O=S(=O)(c1ccc(F)cc1)N1CCCn2cnc(CN3CCCC3)c2C1`, with 3.23%; and `Cc1cc(C)c(CNC(=O)NCCCNc2ccccn2)c(=O)[nH]1`, with 6.35%; and `COC(=O)c1sccc1S(=O)(=O)N1CCc2c(ncnc2N(C)C)C1`, with -1.11%.
Consider `CCOc1ccc(C(=O)NCc2ccnc(N3CCN(C)CC3)c2)cn1`, for which the cytotoxicity at 70.5 h is -7.61%.
Then `CC(=O)Nc1nc(CN2CCn3c(nnc3C(C)C)C2)cs1`, with -4.17%; and `Cn1cc(CCCN2CCCC(c3cc(C(F)(F)F)[nH]n3)C2)cn1` (stereo unspecified), with 6.94%; and `Cc1csc(Nc2nccnc2C2CCCN2S(C)(=O)=O)n1` (stereo unspecified), with -12.8%.
Next, `Cc1nc(C(F)(F)F)nc(N2CCC(O)(C(=O)O)CC2)c1C`: -6.27%; `c1cnc(N2CCC3(CCN(CC4CCOC4)CC3)CC2)nc1` (stereo unspecified): 1.98%.
Then `COc1cccc(CNCc2ccc(F)cc2Cl)c1O`, with -1.41%.
For `O=C(c1cccc(O)c1)N1CCN(Cc2nnc(C3CCC3)o2)CC1`, the cytotoxicity at 70.5 h is 23.6%.
Then `Cc1cc(CSCc2ccccn2)on1`, with -1.54%; and `Cc1cccc(-c2c[nH]c(C3CCCN3C(=O)C3CCOCC3)n2)c1` (stereo unspecified), with -10.3%.
Then `CCN(CC)S(=O)(=O)c1ccc(C(=O)NC(C)(C)C)cc1`, with 35.7%; and `CCN(CCC(=O)OC)C(=O)c1cccc(Cn2nc(C)cc2C)c1`, with 4.14%.
Then `Cc1cc(C(=O)N2CCN(c3nc4c(C(C)C)cccc4s3)CC2)no1`, with 3.44%.
On to `COc1cccc2c1N(CC(=O)Nc1ccc(Br)cn1)CCC2`, for which the cytotoxicity at 70.5 h is -3.62%.
Next, `O=C(CC1CC1)N[C@@H]1CN(C(=O)c2ccsc2)C[C@@H]2CCCO[C@@H]21`: -1.55%.
Next, `CCOC(=O)c1sc2ccsc2c1CNC(=O)CC`: -3.4%.
Next, `O=C1O[C@@H]2CN(c3cnccn3)C[C@@H]2N1CCCc1ccc(F)cc1`: -7.8%; `Cc1nc(C)n(CC2CCCN2Cc2ncc(-c3ccccc3)o2)n1` (stereo unspecified): -2.3%.
Consider `CC(CNC(=O)N1CCNC(=O)CC1)Cc1cccs1` (stereo unspecified), for which the cytotoxicity at 70.5 h was determined as 0.139%.
Next, `Cc1nnc(N2C[C@@H](OCC3CCCC3)[C@H]3OCCC[C@H]32)s1`: -5.21%; `CCCc1n[nH]c(C2CN(C(=O)c3cccc4cn[nH]c34)CCO2)n1` (stereo unspecified): -5.95%.
Next, `Cc1cncnc1C1CCN(CCO)CC1`: -7.32%; `NC(=O)c1nc(CC(=O)Nc2cccc(C(F)(F)F)c2)no1`: 0.00692%.
Then `O=C(COc1ccccc1Cl)N1CCCC(n2ccnc2)C1` (stereo unspecified), with -2.83%; and `FC(F)(F)Cn1nnnc1SCCN1CCCCC1`, with -7.69%.
`NCc1cnc(Nc2ccccc2)nc1`: the cytotoxicity at 70.5 h was -17.3%.
Next, `COC(CNC(=O)c1ccoc1)c1cccc(Cl)c1` (stereo unspecified): -5.07%.
On to `COCCn1/c(=N\C(=O)CN(C)S(C)(=O)=O)sc2cccc(F)c21`, for which the cytotoxicity at 70.5 h was 20.2%.
Then `Cc1ccc(-c2cc(C(=O)NCCCc3csc(N)n3)[nH]n2)o1`, with 1.47%.
Next, `Cc1nn(C)c2cnn(CC(=O)NCCc3ccccc3)c12`: -6.1%.
Next, `Cc1nc(C(=O)N2CCCC(c3cc(C(F)(F)F)[nH]n3)C2)c[nH]1` (stereo unspecified): -6.23%; `COc1ncc(C(=O)N2CCC3(CC2)C(=O)Nc2ccccc23)cn1`: 0.417%; `CCS(=O)(=O)c1ccccc1N1CCC(NC(=O)C(C)C)CC1`: 5.03%.
Turning to `COc1cccc(CNc2cnn(CC(F)F)c2)c1`, the cytotoxicity at 70.5 h was 3.29%.
Next, `CC(C)NC(=O)C1CN(C(=O)CCc2ccccc2)CC12CCOCC2` (stereo unspecified): 44.3%.
Consider `COC(=O)c1ccc(C(=O)NCc2ccco2)nc1`, for which the cytotoxicity at 70.5 h is -8.73%.
Then `O=C([C@H](O)c1ccccc1)N1CCN(c2cccc(Cl)c2)C(=O)C1`, with 13.8%.
Take `Cc1cc(C2CCCN(C(=O)COc3ccccc3F)C2)n[nH]1` (stereo unspecified): the cytotoxicity at 70.5 h turned out to be 12.5%.
`CCC1=N[C@@]2(CC[C@@H]3CN(C(=O)NCc4ccccc4)C[C@@H]32)C(=O)N1`: the cytotoxicity at 70.5 h is -7.28%.
